Key:
[1] = target: Carbonic anhydrase 2 (Homo sapiens, UniProt P00918); test: Inhibition of human recombinant carbonic anhydrase 2 assessed as inhibition constant incubated for 10 mins by phenol red dye based stopped-flow CO2 hydration assay
[2] = target: Carbonic anhydrase 12 (Homo sapiens, UniProt O43570); test: Inhibition of human recombinant carbonic anhydrase 12 assessed as inhibition constant incubated for 10 mins by phenol red dye based stopped-flow CO2 hydration assay
[3] = target: Carbonic anhydrase 1 (Homo sapiens, UniProt P00915); test: Inhibition of human recombinant carbonic anhydrase 1 assessed as inhibition constant incubated for 10 mins by phenol red dye based stopped-flow CO2 hydration assay
[4] = target: Carbonic anhydrase 9 (Homo sapiens, UniProt Q16790); test: Inhibition of human recombinant carbonic anhydrase 9 assessed as inhibition constant incubated for 10 mins by phenol red dye based stopped-flow CO2 hydration assay
[5] = target: Carbonic anhydrase 4 (Homo sapiens, UniProt P22748); test: Inhibition of human recombinant carbonic anhydrase 4 assessed as inhibition constant incubated for 10 mins by phenol red dye based stopped-flow CO2 hydration assay
Sequence of Carbonic anhydrase 4 (P22748 whole entry): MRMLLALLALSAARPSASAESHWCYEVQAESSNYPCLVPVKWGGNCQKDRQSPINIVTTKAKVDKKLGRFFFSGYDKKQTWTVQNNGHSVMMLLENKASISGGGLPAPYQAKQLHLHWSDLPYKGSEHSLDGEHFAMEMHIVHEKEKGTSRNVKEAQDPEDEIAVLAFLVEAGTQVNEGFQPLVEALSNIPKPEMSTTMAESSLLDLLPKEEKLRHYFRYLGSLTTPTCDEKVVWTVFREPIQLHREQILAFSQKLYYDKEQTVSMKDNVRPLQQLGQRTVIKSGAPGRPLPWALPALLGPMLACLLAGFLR

Sequence of Carbonic anhydrase 12 (O43570 whole entry): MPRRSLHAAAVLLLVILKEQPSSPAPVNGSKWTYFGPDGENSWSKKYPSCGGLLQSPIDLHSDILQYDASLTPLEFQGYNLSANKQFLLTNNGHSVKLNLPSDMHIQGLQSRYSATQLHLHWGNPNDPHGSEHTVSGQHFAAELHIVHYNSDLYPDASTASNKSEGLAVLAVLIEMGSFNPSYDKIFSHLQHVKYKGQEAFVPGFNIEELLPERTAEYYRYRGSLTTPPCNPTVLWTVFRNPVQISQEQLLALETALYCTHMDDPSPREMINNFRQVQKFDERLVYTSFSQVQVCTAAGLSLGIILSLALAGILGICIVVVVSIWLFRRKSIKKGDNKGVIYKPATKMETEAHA
Sequence of Carbonic anhydrase 1 (P00915 whole entry): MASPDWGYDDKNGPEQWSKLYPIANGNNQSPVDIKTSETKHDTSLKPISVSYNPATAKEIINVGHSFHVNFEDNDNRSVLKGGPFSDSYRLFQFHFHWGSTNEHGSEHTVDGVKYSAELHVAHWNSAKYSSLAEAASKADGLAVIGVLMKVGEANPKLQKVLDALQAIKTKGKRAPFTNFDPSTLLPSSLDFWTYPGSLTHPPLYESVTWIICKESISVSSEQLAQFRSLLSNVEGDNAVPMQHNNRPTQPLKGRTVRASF

SMILES	Ki [1] [nM]	Ki [2] [nM]	Ki [3] [nM]	Ki [4] [nM]	Ki [5] [nM]
NS(=O)(=O)c1ccc(NC(=O)c2cc(-c3cccc(Cl)c3)nc3ccccc23)cc1	141	72.8	838	97.1	
COc1ccc2nc(-c3ccc(Cl)cc3Cl)cc(C(=O)NCCc3ccc(S(N)(=O)=O)cc3)c2c1	674	438	6340	73.8	
COc1ccc2nc(-c3ccc(OC)c(OC)c3)cc(C(=O)NCCc3ccc(S(N)(=O)=O)cc3)c2c1	588	218	5540	70.3	
COc1ccc2nc(-c3ccccc3OC)cc(C(=O)NCCc3ccc(S(N)(=O)=O)cc3)c2c1	382	851	902	67.7	
COc1ccc2nc(-c3ccccc3)cc(C(=O)Nc3ccc(S(N)(=O)=O)cc3)c2c1	91.3	56.7	535	35.7	
COc1ccc(-c2cc(C(=O)Nc3cccc(S(N)(=O)=O)c3)c3ccccc3n2)cc1OC	388	76.2	888	78.2	
NS(=O)(=O)c1cccc(NC(=O)c2cc(-c3ccccc3)nc3ccc(Cl)cc23)c1	172	71.1	6600	330	
COc1ccc(-c2cc(C(=O)Nc3ccc(S(N)(=O)=O)cc3)c3cc(Cl)ccc3n2)cc1OC	305	215	797	309	
Cc1ccc(-c2cc(C(=O)Nc3cccc(S(N)(=O)=O)c3)c3cc(Cl)ccc3n2)cc1	293	757	3940	245	
NS(=O)(=O)c1cccc(NC(=O)c2cc(-c3ccccc3)nc3ccccc23)c1	298	9.6	966	67.4	
COc1ccc(-c2cc(C(=O)Nc3cccc(S(N)(=O)=O)c3)c3cc(Cl)ccc3n2)cc1OC	253	423	831	247	
NS(=O)(=O)c1cccc(NC(=O)c2cc(-c3ccc4c(c3)OCO4)nc3ccccc23)c1	478	88.9	1460	65.4	
NS(=O)(=O)c1cccc(NC(=O)c2cc(-c3cccc(Br)c3)nc3ccccc23)c1	156	341	854	91.3	
NS(=O)(=O)c1ccc(CCNC(=O)c2cc(-c3ccccc3)nc3ccc(Br)cc23)cc1	867	758	6280	58.8	
NS(=O)(=O)c1ccc(NC(=O)c2cc(-c3cccc(C(F)(F)F)c3)nc3ccccc23)cc1	262	169	659	421	
COc1ccc(-c2cc(C(=O)Nc3ccc(S(N)(=O)=O)cc3)c3ccccc3n2)c(OC)c1	598	261	5320	93.2	
NS(=O)(=O)c1cccc(NC(=O)c2cc(-c3cccc(Cl)c3)nc3ccc(Cl)cc23)c1	257	527	848	349	
COc1ccc2nc(-c3ccccc3)cc(C(=O)NCCc3ccc(S(N)(=O)=O)cc3)c2c1	487	391	933	75.5	
COc1ccc2nc(-c3ccc(OC)c(OC)c3)cc(C(=O)Nc3cccc(S(N)(=O)=O)c3)c2c1	97.8	426	665	51.3	
COc1ccc(-c2cc(C(=O)NCCc3ccc(S(N)(=O)=O)cc3)c3cc(Cl)ccc3n2)cc1OC	187	302	765	91.6	

Continued by falling Ki [1], values first:

Ki [1] [nM]	Ki [2] [nM]	Ki [3] [nM]	Ki [4] [nM]	Ki [5] [nM]	SMILES
91.1	6.9	1820	74.2		NS(=O)(=O)c1ccc(CCNC(=O)c2cc(-c3cccc(C(F)(F)F)c3)nc3ccccc23)cc1
87.8	365	3770	64.6		NS(=O)(=O)c1cccc(NC(=O)c2cc(-c3cccc(C(F)(F)F)c3)nc3ccccc23)c1
61.7	64.8	896	93.5		COc1ccc2nc(-c3ccc(Cl)cc3Cl)cc(C(=O)Nc3cccc(S(N)(=O)=O)c3)c2c1
54.7	130	537	70.4		NS(=O)(=O)c1ccc(NC(=O)c2cc(-c3ccccc3)nc3ccccc23)cc1
44.5	8.8	283	37.2		COc1ccc2nc(-c3ccccc3OC)cc(C(=O)Nc3ccc(S(N)(=O)=O)cc3)c2c1
42.9	6.7	1890	47.6		NS(=O)(=O)c1ccc(CCNC(=O)c2cc(-c3ccccc3)nc3ccc(Cl)cc23)cc1
35.2	88.5	91.8	9.7		COc1ccc(-c2cc(C(=O)NCCc3ccc(S(N)(=O)=O)cc3)c3ccccc3n2)cc1OC
28.5	46.9	555	21.4		COc1ccc2nc(-c3ccccc3C)cc(C(=O)Nc3ccc(S(N)(=O)=O)cc3)c2c1
26.2	75.5	416	9.1		COc1ccc2nc(-c3ccc(OC)c(OC)c3)cc(C(=O)Nc3ccc(S(N)(=O)=O)cc3)c2c1
18.3	555	3620	22.8		NS(=O)(=O)c1ccc(CCNC(=O)c2cc(-c3ccc4c(c3)OCO4)nc3ccccc23)cc1
9.6	30.9	977	39.3		NS(=O)(=O)c1ccc(CCNC(=O)c2cc(-c3cccc(Br)c3)nc3ccccc23)cc1
9.3	8.8		54.7		O=C(/C=C/c1sc(N2CCOCC2)nc1-c1ccc([N+](=O)[O-])cc1)Nc1ccc(Br)cc1
7.1	72.1	256	6.5		NS(=O)(=O)c1ccc(NC(=O)c2cc(-c3ccc4c(c3)OCO4)nc3ccccc23)cc1
5				10	CCN(C1CC(C)S(=O)(=O)c2sc(S(N)(=O)=O)cc21)S(=O)(=O)c1cccc2cccnc12 (stereo not drawn)
2.3			31		NS(=O)(=O)c1ccc(NC(=O)Cn2cc(/C=C/C(=O)c3cccc(C(F)(F)F)c3)c3ccccc32)cc1
0.03	0.1	1.3			NS(=O)(=O)c1cc(C(=O)CSc2nc3c(cnc4ccccc43)[nH]2)ccc1Cl
